Source: patent US12508300B2, “Acylated GLP-1 derivative” (Sciwind Biosciences Co., Ltd., priority 2019, dated 2025)
Like-named read-outs stand apart in the source and are kept apart here. *1 amine or outer side, *2 acyl side, *3 side chain or, on linkers, in order; H or OH if unused. Where a SMILES comes first, the peptide text is derived from it. Where no end group is shown, it is not given here. Side-chain parts run from the residue outwards. The star is where a group is joined. C18 diacid = O=C(O)CCCCCCCCCCCCCCCCC(=O)*; γGlu = O=C(O)[C@H](CCC(=O)[*:2])N[*:1]; AEEA = NCCOCCOCC(=O)O

Columns and labels:
ICR mice = format: in vivo; design: G-AUC: unit not given here
Protocol: 20% glucose is intragastrically administered every day according to the time schedule of 4 h, 1 d, 2 d, 3 d, 4 d, and 5 d, at a dose of 2 g/kg body weight, and fasting for 6 hours before administering the glucose; and blood is respectively collected from the tip of the tail at 0 h, 0.5 h, 1 h and 2 h after giving the 20% glucose, then measuring the blood glucose value in real time by using Roche blood glucose test paper.

RIN-m5F cells = experiment: In vitro activity determination in RIN-m5F cells (cAMP assay kit); format: cell-based
Protocol: RIN-m5F cells with good culturing status are selected. Cells are then collected, counted, and prepared into a cell suspension of 1×10^5 cells/ml with RPMI1640 basal medium. The cell suspension is inoculated in a 96-well cell culture plate, 100 μl per well, then incubating overnight at 37° C. and 5% CO2.
The prepared cell plate is taken out, then discarding the medium, and blotting it dry on the filter paper. The sample solutions are transferred correspondingly into the cell plate, 40 μl/well; treating with the lid open for 15 min at 37° C. and 5% CO2. The cell culture plate is taken out from the incubator, then adding 10 μl of CD solution (cAMP assay kit, Promega) to each well, keeping the cell plate at 22-25° C., and shaking horizontally at 500 rpm for 20 min. 50 μl of KG solution (cAMP assay kit, Promega) is added to each well, then shaking horizontally at 22° C.-25° C., 500 rpm and avoiding light for 10 min. The chemiluminescence value is read by using the Molecular Devices SpectraMax L chemiluminescence apparatus, completing the measurement in 30 min. EC50 of a sample is calculated by using the four-parameter regression in softmax Pro software.

CD-1 mice = format: in vivo; settings: 0.15 mg/kg s.c.; for Inhibition rate (blood glucose): Table 5 (second experiment), CD-1 mice; for glucose-lowing effects (comparison in words, Tables 4 and 5): normal mice
Protocol: Twenty-eight healthy female CD-1 mice aged 4-6 weeks are selected and divided into 4 groups, and they are injected subcutaneously with M4, M5, M7 and M0 at a dose of 0.15 mg/kg body weight.

db/db mice = experiment: Fasting blood glucose after single injection in type II diabetic db/db mice (FIG. 1); format: in vivo; settings: 0.05 mg/kg s.c. single, day 2
Protocol: The dosage is 0.05 mg/kg for each, and the administration time is set as 0 h. Fasting blood glucose is measured after fasting for 6-8 h every day, and the fasting blood glucose after administration is measured every day until the fasting blood glucose value of each animal of the test group recovers to the value measured before administration. The blood glucose value measured before administration is called the basal blood glucose value, and is set as 0. Change of the fasting blood glucose (Δ: delta)=Blood glucose value after administration-Basal blood glucose value before administration.

GLP1R = target: T1, GLP1R (Homo sapiens, UniProt P43220); experiment: In vitro activity determination in HEK293/CRE-Luc/GLP1R cells (luciferase reporter); format: cell-based
T1 construct: expressed in transfected cells; host or cells: HEK293
Protocol: Based on the fact that GLP-1 may bind to the receptor on the cell membrane, the HEK293/CRE-Luc/GLPIR cell line is constructed, the CAMP response elements (CRE) are activated through a series of signal transduction, the expression of downstream luciferase is initiated, and the amount of its expression is positively correlated with the biological activity of GLP-1. After adding the luciferase substrate, the chemiluminescence assay is performed to determine the luminous intensity, thereby determining the biological activity of GLP-1.
96-well cell culture plate (white and opaque), DMEM medium (GIBCO), 0.05% TRYPSIN-EDTA (GIBCO), fetal bovine serum (GIBCO), G418, hygromycin B, Bright-Glo™ Luciferase Assay System Kit (Promega), and HEK293/CRE-luc/GLP1R cells.
(1) Cell preparation: the cells are cultured until they grow vigorously and reach a sufficient quantity, discarding the culture medium in the culture bottle, adding 3 ml of Versene solution and shaking once; then adding 2 ml of 0.05% TRYPSIN-EDTA digestion solution, covering the bottle and standing for 1 minute, and then adding 6 ml of the assay medium to quench the digestion; after centrifugation at 1000 r/min for 3 min, the supernatant is discarded, and the cells are resuspended in 5 ml of assay medium and counted on a hemacytometer. The cell density is adjusted to an appropriate range for later use by using DMEM assay medium.
(2) Sample preparation: the derivatives of different GLP-1 analogues in Table 1 are diluted to 20 ng/ml with the assay medium, then gradient diluted into 8 concentrations in 96-well plates, and using the assay medium instead of the sample as the cell blank control. 2 duplicate wells are made for each dilution concentration.
(3) Culturing with addition of the samples: the prepared solutions of the control and test samples are transferred to a 96-well cell culture plate (white board), adding 50 μl of the solution to each well; then adding the prepared cell suspension, adding 50 μl of the suspension to each well; and then incubating for a certain period of time under the conditions of 37° C. and 5% CO2.
(4) Chemiluminescence assay: substrate is added, then taking out the 96-well cell culture plate, adding 100 μl of Bright Glo reagent to each well, and leaving in the dark for 3 min.
(5) Reading: determination is performed with a chemiluminescence microplate reader SpectraMax L, then reading the plate within 30 min, and recording the determined results.

T1 sequence (P43220 24-463, species assumed): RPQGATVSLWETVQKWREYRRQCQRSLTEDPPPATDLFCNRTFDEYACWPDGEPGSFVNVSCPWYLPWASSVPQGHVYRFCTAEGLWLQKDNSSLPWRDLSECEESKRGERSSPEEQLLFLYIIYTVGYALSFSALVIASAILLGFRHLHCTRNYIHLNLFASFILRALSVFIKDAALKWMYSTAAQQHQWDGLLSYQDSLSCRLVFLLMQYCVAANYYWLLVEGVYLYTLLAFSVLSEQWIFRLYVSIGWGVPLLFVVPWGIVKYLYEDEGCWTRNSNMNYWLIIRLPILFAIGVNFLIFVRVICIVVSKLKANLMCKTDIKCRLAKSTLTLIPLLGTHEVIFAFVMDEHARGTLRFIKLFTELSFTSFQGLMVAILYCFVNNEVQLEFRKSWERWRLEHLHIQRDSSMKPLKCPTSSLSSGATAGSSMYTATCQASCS

Compound | G-AUC (ICR mice; 0 h (before administration)) | G-AUC (ICR mice; 0.15 mg/kg s.c. single, 4 h) | Inhibition rate (blood glucose) (ICR mice; 0.15 mg/kg s.c. single, 4 h) | G-AUC (ICR mice; 0.15 mg/kg s.c. single, 1 d) | Inhibition rate (blood glucose) (ICR mice; 0.15 mg/kg s.c. single, 1 d) | G-AUC (ICR mice; 0.15 mg/kg s.c. single, 2 d) | Inhibition rate (blood glucose) (ICR mice; 0.15 mg/kg s.c. single, 2 d) | G-AUC (ICR mice; 0.15 mg/kg s.c. single, 3 d) | Inhibition rate (blood glucose) (ICR mice; 0.15 mg/kg s.c. single, 3 d) | G-AUC (ICR mice; 0.15 mg/kg s.c. single, 4 d) | Inhibition rate (blood glucose) (ICR mice; 0.15 mg/kg s.c. single, 4 d) | G-AUC (ICR mice; 0.15 mg/kg s.c. single, 5 d) | Inhibition rate (blood glucose) (ICR mice; 0.15 mg/kg s.c. single, 5 d) | in vitro activities (comparison in words) (RIN-m5F cells) | Inhibition rate (blood glucose) (CD-1 mice; 6 h) | Inhibition rate (blood glucose) (CD-1 mice; 30 h) | Inhibition rate (blood glucose) (CD-1 mice; 54 h) | Inhibition rate (blood glucose) (CD-1 mice; 78 h) | Inhibition rate (blood glucose) (CD-1 mice; 102 h) | glucose-lowing effects (comparison in words, Tables 4 and 5) (CD-1 mice) | other results
N-ε^34-[2-(2-[2-(2-[2-(2-[4-(17-carboxyheptadecanoylamino)-4(s)-carboxybutyrylamino]ethoxy)ethoxy]acetylamino)ethoxy]ethoxy)acetyl](Val^8Glu^22 Arg^26Lys^34-GLP-1(7-37)) peptide (HVEGTFTSDVSSYLEEQAAREFIAWLVK([AEEA-AEEA-γGlu-C18 diacid])GRG) [M5] | 16.3 ± 2.5 | 11.5 ± 1.0 | 29.59% | 9.9 ± 0.7 | 39.47% | 11.4 ± 1.3 | 30.11% | 11.9 ± 2.0 | 27.07% | 13.8 ± 1.9 | 15.38% | 14.4 ± 2.2 | 11.66% | comparable | 29.59% | 39.47% | 30.11% | 27.07% | 15.38% | comparable | –
N-ε^37-[2-(2-[2-(2-[2-(2-[4-(17-carboxyheptadecanoylamino)-4(s)-carboxybutyrylamino]ethoxy)ethoxy]acetylamino)ethoxy]ethoxy)acetyl](Val^8Glu^22Arg^26,34Lys^37-GLP-1 (7-37)) peptide (HVEGTFTSDVSSYLEEQAAREFIAWLVRGRK([AEEA-AEEA-γGlu-C18 diacid])) [M7] | 16.3 ± 2.7 | 11.8 ± 1.4 | 27.22% | 10.0 ± 1.6 | 38.82% | 12.6 ± 1.5 | 22.56% | 12.6 ± 0.7 | 22.48% | 14.4 ± 1.1 | 11.60% | 15.2 ± 1.0 | 6.76% | comparable | 27.22% | 38.82% | 22.56% | 22.48% | 11.60% | comparable | –
CC[C@H](C)[C@H](NC(=O)[C@H](Cc1ccccc1)NC(=O)[C@H](CCC(=O)O)NC(=O)[C@H](CCCNC(=N)N)NC(=O)[C@H](C)NC(=O)[C@H](C)NC(=O)[C@H](CCC(N)=O)NC(=O)[C@H](CCC(=O)O)NC(=O)[C@H](CCC(=O)O)NC(=O)[C@H](CC(C)C)NC(=O)[C@H](Cc1ccc(O)cc1)NC(=O)[C@H](CO)NC(=O)[C@H](CO)NC(=O)[C@@H](NC(=O)[C@H](CC(=O)O)NC(=O)[C@H](CO)NC(=O)[C@@H](NC(=O)[C@H](Cc1ccccc1)NC(=O)[C@@H](NC(=O)CNC(=O)[C@H](CCC(=O)O)NC(=O)CNC(=O)[C@@H](N)Cc1c[nH]cn1)[C@@H](C)O)[C@@H](C)O)C(C)C)C(=O)N[C@@H](CCCCNC(=O)COCCOCCNC(=O)COCCOCCNC(=O)CC[C@H](NC(=O)CCCCCCCCCCCCCCCCC(=O)O)C(=O)O)C(=O)N[C@@H](Cc1c[nH]c2ccccc12)C(=O)N[C@@H](CC(C)C)C(=O)N[C@H](C(=O)N[C@@H](CCCNC(=N)N)C(=O)NCC(=O)N[C@@H](CCCNC(=N)N)C(=O)NCC(=O)O)C(C)C [M16, N-ε^30-[2-(2-[2-(2-[2-(2-[4-(17-carboxyheptadecanoylamino)-4(s)-carboxybutyrylamino]ethoxy)ethoxy]acetylamino)ethoxy]ethoxy)acetyl](Gly^8Glu^22Lys^30Arg^26,34-GLP-1(7-37)) peptide] (H-HGEGTFTSDVSSYLEEQAAREFIK([AEEA-AEEA-γGlu-C18 diacid])WLVRGRG-OH; N-terminus and C-terminus assumed) | – | – | – | – | – | – | – | – | – | – | – | – | – | – | – | – | – | – | – | – | glucose-lowing effect compared with Semaglutide (FIG. 1) (db/db mice): lower than that of Semaglutide; in vitro activities (comparison in words) (GLP1R): comparable
